Data taken from PubChem BioAssay (NCI).
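Growth conditions: 96-well plates. Treatment: test compound, 48 hours, 5 concentrations. Analysis: linear interpolation between bracketing concentrations; unreached endpoints set to highest concentration. Abbreviation: GI50, concentration required for 50% inhibition of growth. TGI denotes the concentration required for complete inhibition of growth.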

Each compound was assayed on HS 578T breast (assay: DTP human tumour cell line panel, 48 h).
Compound `O=c1[nH]c(-c2cccc(F)c2)cc2cc(F)ccc12` has a GI50 of 0.381 µM and a TGI greater than 72.8 µM.
For `O=c1cccc(C#CC#C[C@@H]2O[C@H]2CO)o1`, the GI50 was 5.18 µM and the TGI was 24.5 µM.
`CSc1csc(-c2ccc(-c3ccc(-c4cc(SC)cs4)s3)s2)c1` showed a TGI greater than 100 µM.
`CCCCCCn1c(-c2ccc(C(=O)O/N=C(\N)c3ccc4c(c3)OCO4)cc2)nc(-c2ccccc2)c1-c1ccccc1` gave a GI50 of 1.64 µM and a TGI of 3.95 µM.

What follows are compounds tested on ACHN renal (assay: DTP human tumour cell line panel, 48 h).
Work on `O=c1[nH]c(-c2cccc(F)c2)cc2cc(F)ccc12` yielded a GI50 of 0.771 µM and a TGI greater than 100 µM.
Compound `O=c1cccc(C#CC#C[C@@H]2O[C@H]2CO)o1` has a GI50 of 0.845 µM and a TGI of 2.08 µM.
`CSc1csc(-c2ccc(-c3ccc(-c4cc(SC)cs4)s3)s2)c1` gave a TGI greater than 100 µM.
Work on `CCCCCCn1c(-c2ccc(C(=O)O/N=C(\N)c3ccc4c(c3)OCO4)cc2)nc(-c2ccccc2)c1-c1ccccc1` yielded a GI50 of 0.387 µM and a TGI of 1.46 µM.
`[N-]=[N+]=CC(=O)OC(CCl)CCl` was tested, and the TGI was greater than 100 µM.

These compounds were tested on TK-10 renal (assay: DTP human tumour cell line panel, 48 h).
Compound `O=c1[nH]c(-c2cccc(F)c2)cc2cc(F)ccc12` has a GI50 greater than 50 µM and a TGI greater than 100 µM.
Work on `O=c1cccc(C#CC#C[C@@H]2O[C@H]2CO)o1` yielded a GI50 of 1.47 µM and a TGI of 3.38 µM.
`CSc1csc(-c2ccc(-c3ccc(-c4cc(SC)cs4)s3)s2)c1` was tested, and the TGI was greater than 100 µM.
Work on `CCCCCCn1c(-c2ccc(C(=O)O/N=C(\N)c3ccc4c(c3)OCO4)cc2)nc(-c2ccccc2)c1-c1ccccc1` yielded a GI50 of 1.94 µM and a TGI of 3.61 µM.
In the case of `[N-]=[N+]=CC(=O)OC(CCl)CCl`, the TGI was greater than 100 µM.

Each compound was assayed on HCC-2998 colon (assay: DTP human tumour cell line panel, 48 h).
`O=c1[nH]c(-c2cccc(F)c2)cc2cc(F)ccc12` was tested, and the GI50 was 1.91 µM and the TGI was greater than 100 µM.
`O=c1cccc(C#CC#C[C@@H]2O[C@H]2CO)o1` gave a GI50 of 0.217 µM and a TGI of 0.55 µM.
Compound `CSc1csc(-c2ccc(-c3ccc(-c4cc(SC)cs4)s3)s2)c1` has a TGI greater than 100 µM.
With `CCCCCCn1c(-c2ccc(C(=O)O/N=C(\N)c3ccc4c(c3)OCO4)cc2)nc(-c2ccccc2)c1-c1ccccc1` the GI50 was 2.96 µM and the TGI was 10.4 µM.
For `[N-]=[N+]=CC(=O)OC(CCl)CCl`, the TGI was greater than 100 µM.

What follows are compounds tested on COLO 205 colon (assay: DTP human tumour cell line panel, 48 h).
`O=c1[nH]c(-c2cccc(F)c2)cc2cc(F)ccc12` showed a GI50 of 0.338 µM and a TGI greater than 100 µM.
With `O=c1cccc(C#CC#C[C@@H]2O[C@H]2CO)o1` the GI50 was 0.201 µM and the TGI was 0.388 µM.
With `CSc1csc(-c2ccc(-c3ccc(-c4cc(SC)cs4)s3)s2)c1` the TGI was greater than 100 µM.
`CCCCCCn1c(-c2ccc(C(=O)O/N=C(\N)c3ccc4c(c3)OCO4)cc2)nc(-c2ccccc2)c1-c1ccccc1` was tested, and the GI50 was 2.15 µM and the TGI was 5.37 µM.
With `[N-]=[N+]=CC(=O)OC(CCl)CCl` the TGI was greater than 100 µM.

These compounds were tested on RXF 393 renal (assay: DTP human tumour cell line panel, 48 h).
Compound `O=c1[nH]c(-c2cccc(F)c2)cc2cc(F)ccc12` has a GI50 of 0.358 µM.
In the case of `O=c1cccc(C#CC#C[C@@H]2O[C@H]2CO)o1`, the GI50 was 1.77 µM and the TGI was 3.98 µM.
In the case of `CCCCCCn1c(-c2ccc(C(=O)O/N=C(\N)c3ccc4c(c3)OCO4)cc2)nc(-c2ccccc2)c1-c1ccccc1`, the GI50 was 1.77 µM and the TGI was 3.88 µM.
With `[N-]=[N+]=CC(=O)OC(CCl)CCl` the TGI was greater than 100 µM.

What follows are compounds tested on UACC-257 melanoma (assay: DTP human tumour cell line panel, 48 h).
Compound `O=c1[nH]c(-c2cccc(F)c2)cc2cc(F)ccc12` has a GI50 greater than 100 µM and a TGI greater than 100 µM.
With `O=c1cccc(C#CC#C[C@@H]2O[C@H]2CO)o1` the GI50 was 2.17 µM and the TGI was 4.52 µM.
For `CSc1csc(-c2ccc(-c3ccc(-c4cc(SC)cs4)s3)s2)c1`, the TGI was greater than 100 µM.
Compound `CCCCCCn1c(-c2ccc(C(=O)O/N=C(\N)c3ccc4c(c3)OCO4)cc2)nc(-c2ccccc2)c1-c1ccccc1` has a GI50 of 10.5 µM and a TGI of 43.2 µM.
Compound `[N-]=[N+]=CC(=O)OC(CCl)CCl` has a TGI greater than 100 µM.

These compounds were tested on OVCAR-3 ovarian (assay: DTP human tumour cell line panel, 48 h).
With `O=c1[nH]c(-c2cccc(F)c2)cc2cc(F)ccc12` the GI50 was 0.314 µM.
In the case of `O=c1cccc(C#CC#C[C@@H]2O[C@H]2CO)o1`, the GI50 was 2.06 µM and the TGI was 3.69 µM.
`CSc1csc(-c2ccc(-c3ccc(-c4cc(SC)cs4)s3)s2)c1` was tested, and the TGI was greater than 100 µM.
For `CCCCCCn1c(-c2ccc(C(=O)O/N=C(\N)c3ccc4c(c3)OCO4)cc2)nc(-c2ccccc2)c1-c1ccccc1`, the GI50 was 2.48 µM and the TGI was 7.87 µM.
`[N-]=[N+]=CC(=O)OC(CCl)CCl` was tested, and the TGI was greater than 100 µM.

What follows are compounds tested on MCF7 breast (assay: DTP human tumour cell line panel, 48 h).
Compound `O=c1[nH]c(-c2cccc(F)c2)cc2cc(F)ccc12` has a GI50 of 0.329 µM and a TGI greater than 100 µM.
Work on `O=c1cccc(C#CC#C[C@@H]2O[C@H]2CO)o1` yielded a GI50 of 0.525 µM and a TGI of 1.36 µM.
For `CSc1csc(-c2ccc(-c3ccc(-c4cc(SC)cs4)s3)s2)c1`, the TGI was greater than 100 µM.
Work on `CCCCCCn1c(-c2ccc(C(=O)O/N=C(\N)c3ccc4c(c3)OCO4)cc2)nc(-c2ccccc2)c1-c1ccccc1` yielded a GI50 of 1.58 µM and a TGI of 3.5 µM.
Work on `[N-]=[N+]=CC(=O)OC(CCl)CCl` yielded a TGI greater than 100 µM.

What follows are compounds tested on SF-268 CNS (assay: DTP human tumour cell line panel, 48 h).
`O=c1[nH]c(-c2cccc(F)c2)cc2cc(F)ccc12` was tested, and the GI50 was greater than 82.9 µM and the TGI was greater than 100 µM.
`O=c1cccc(C#CC#C[C@@H]2O[C@H]2CO)o1` showed a GI50 of 1.78 µM and a TGI of 3.91 µM.
`CSc1csc(-c2ccc(-c3ccc(-c4cc(SC)cs4)s3)s2)c1` was tested, and the TGI was greater than 100 µM.
`CCCCCCn1c(-c2ccc(C(=O)O/N=C(\N)c3ccc4c(c3)OCO4)cc2)nc(-c2ccccc2)c1-c1ccccc1` showed a GI50 of 2.11 µM and a TGI of 4.64 µM.
Work on `[N-]=[N+]=CC(=O)OC(CCl)CCl` yielded a TGI greater than 100 µM.

The compounds below were run on SW-620 colon (assay: DTP human tumour cell line panel, 48 h).
`O=c1[nH]c(-c2cccc(F)c2)cc2cc(F)ccc12` was tested, and the GI50 was 0.174 µM and the TGI was greater than 100 µM.
In the case of `O=c1cccc(C#CC#C[C@@H]2O[C@H]2CO)o1`, the GI50 was 0.746 µM and the TGI was 3.77 µM.
For `CSc1csc(-c2ccc(-c3ccc(-c4cc(SC)cs4)s3)s2)c1`, the TGI was greater than 100 µM.
For `CCCCCCn1c(-c2ccc(C(=O)O/N=C(\N)c3ccc4c(c3)OCO4)cc2)nc(-c2ccccc2)c1-c1ccccc1`, the GI50 was 2.8 µM and the TGI was 12 µM.
For `[N-]=[N+]=CC(=O)OC(CCl)CCl`, the TGI was greater than 100 µM.

What follows are compounds tested on SF-295 CNS (assay: DTP human tumour cell line panel, 48 h).
For `O=c1[nH]c(-c2cccc(F)c2)cc2cc(F)ccc12`, the GI50 was 0.305 µM and the TGI was greater than 100 µM.
`O=c1cccc(C#CC#C[C@@H]2O[C@H]2CO)o1` was tested, and the GI50 was 2.64 µM and the TGI was 9.03 µM.
`CSc1csc(-c2ccc(-c3ccc(-c4cc(SC)cs4)s3)s2)c1` gave a TGI greater than 100 µM.
`CCCCCCn1c(-c2ccc(C(=O)O/N=C(\N)c3ccc4c(c3)OCO4)cc2)nc(-c2ccccc2)c1-c1ccccc1` showed a GI50 of 1.69 µM and a TGI of 3.35 µM.
`[N-]=[N+]=CC(=O)OC(CCl)CCl` was tested, and the TGI was greater than 100 µM.

These compounds were tested on NCI-H226 lung (assay: DTP human tumour cell line panel, 48 h).
With `O=c1[nH]c(-c2cccc(F)c2)cc2cc(F)ccc12` the TGI was greater than 100 µM.
`O=c1cccc(C#CC#C[C@@H]2O[C@H]2CO)o1` showed a GI50 of 0.627 µM and a TGI of 1.4 µM.
With `CSc1csc(-c2ccc(-c3ccc(-c4cc(SC)cs4)s3)s2)c1` the TGI was greater than 100 µM.
For `CCCCCCn1c(-c2ccc(C(=O)O/N=C(\N)c3ccc4c(c3)OCO4)cc2)nc(-c2ccccc2)c1-c1ccccc1`, the GI50 was 3.47 µM and the TGI was 15.9 µM.
`[N-]=[N+]=CC(=O)OC(CCl)CCl` showed a TGI greater than 100 µM.

The compounds below were run on K-562 leukemia (assay: DTP human tumour cell line panel, 48 h).
For `O=c1[nH]c(-c2cccc(F)c2)cc2cc(F)ccc12`, the GI50 was 0.0698 µM and the TGI was greater than 100 µM.
With `O=c1cccc(C#CC#C[C@@H]2O[C@H]2CO)o1` the GI50 was 1.49 µM and the TGI was greater than 100 µM.
Compound `CSc1csc(-c2ccc(-c3ccc(-c4cc(SC)cs4)s3)s2)c1` has a TGI greater than 100 µM.
`CCCCCCn1c(-c2ccc(C(=O)O/N=C(\N)c3ccc4c(c3)OCO4)cc2)nc(-c2ccccc2)c1-c1ccccc1` gave a GI50 of 1.92 µM and a TGI of 5.06 µM.
`[N-]=[N+]=CC(=O)OC(CCl)CCl` was tested, and the TGI was greater than 100 µM.

What follows are compounds tested on CCRF-CEM leukemia (assay: DTP human tumour cell line panel, 48 h).
`O=c1[nH]c(-c2cccc(F)c2)cc2cc(F)ccc12` showed a GI50 of 0.369 µM and a TGI greater than 100 µM.
